Results published in ChEMBL document CHEMBL1138436, “Biological activity and chemistry of taxoids from the Japanese yew, Taxus cuspidata” (J Nat Prod, 2004).

Legend:
Format in all cases: functional
[1] = tested on: St-4; assay: Growth inhibition of human St-4 cells
[2] = tested on: MCF7; assay: Growth inhibition of human MCF7 cells
[3] = tested on: DMS-114; assay: Growth inhibition of human DMS114 cells
[4] = tested on: MKN-7; assay: Growth inhibition of human MKN7 cells
[5] = tested on: HCT-15; assay: Growth inhibition of human HCT15 cells
[6] = tested on: HT-29; assay: Growth inhibition of human HT-29 cells
[7] = tested on: MDA-MB-231; assay: Growth inhibition of human MDA-MB-231 cells
[8] = tested on: NCI-H226; assay: Growth inhibition of human NCI-H226 cells
[9] = tested on: DU-145; assay: Growth inhibition of human DU145 cells
[10] = tested on: HCC 2998; assay: Growth inhibition of human HCC2998 cells
[11] = tested on: PC-3; assay: Growth inhibition of human PC3 cells
[12] = tested on: MKN-74; assay: Growth inhibition of human MKN74 cells
[13] = tested on: KM12; assay: Growth inhibition of human KM12 cells
[14] = tested on: A549; assay: Growth inhibition of human A549 cells
[15] = tested on: SF-268; assay: Growth inhibition of human SF268 cells
[16] = tested on: U-251; assay: Growth inhibition of human U251 cells
[17] = tested on: OVCAR-4; assay: Growth inhibition of human OVCAR4 cells
[18] = tested on: SF-295; assay: Growth inhibition of human SF295 cells
[19] = tested on: OVCAR-5; assay: Growth inhibition of human OVCAR5 cells
[20] = tested on: HCT-116; assay: Growth inhibition of human HCT116 cells
[21] = tested on: NCI-H460; assay: Growth inhibition of human NCI-H460 cells
[22] = Growth inhibition of human HBC5 cells
[23] = Growth inhibition of human HBC4 cells
[24] = tested on: DMS-273; assay: Growth inhibition of human DMS273 cells
[25] = tested on: LOX IMVI; assay: Growth inhibition of human LOXIMVI cells
[26] = tested on: NCI-H522; assay: Growth inhibition of human NCI-H522 cells
[27] = tested on: SK-OV-3; assay: Growth inhibition of human SKOV3 cells
[28] = Growth inhibition of human BSY1 cells
[29] = tested on: SNB-75; assay: Growth inhibition of human SNB75 cells
[30] = read-out: LC50 (the source's name)
[31] = read-out: pLC50 (the source's name) (converted)

CC(=O)O[C@H]1C[C@H]2OC[C@@]2(OC(C)=O)[C@H]2[C@H](OC(=O)c3ccccc3)[C@]3(O)C[C@H](O)C(C)=C([C@@H](O)[C@H](O)[C@]12C)C3(C)C [TAXUSPINE E]
GI50 ([1]; read-out: GI50): 33 µM | CC50 [1, 30]: > 100 µM | TGI ([1]; read-out: TGI): > 100 µM | GI50 ([1]; read-out: pGI50 (converted)): 33.1 µM | CC50 [1, 31]: 100 µM | TGI ([1]; read-out: pTGI (converted)): 100 µM | GI50 ([2]; read-out: GI50): 24 µM | CC50 [2, 30]: > 100 µM | TGI ([2]; read-out: TGI): 93 µM | GI50 ([2]; read-out: pGI50 (converted)): 24 µM | CC50 [2, 31]: 100 µM | TGI ([2]; read-out: pTGI (converted)): 93.3 µM | GI50 ([3]; read-out: GI50): 10 µM | CC50 [3, 30]: > 100 µM | TGI ([3]; read-out: TGI): 57 µM | GI50 ([3]; read-out: pGI50 (converted)): 10 µM | TGI ([3]; read-out: pTGI (converted)): 57.5 µM | TGI [4]: 93 µM | GI50 ([4]; read-out: GI50): 18 µM | CC50 [4, 30]: > 100 µM | GI50 ([4]; read-out: pGI50 (converted)): 18.2 µM | GI50 ([5]; read-out: GI50): 32 µM | CC50 [5, 30]: > 100 µM | TGI ([5]; read-out: TGI): > 100 µM | GI50 ([5]; read-out: pGI50 (converted)): 32.4 µM | CC50 [5, 31]: 100 µM | TGI ([5]; read-out: pTGI (converted)): 100 µM | GI50 ([6]; read-out: GI50): 28 µM | CC50 [6, 30]: > 100 µM | TGI ([6]; read-out: TGI): > 100 µM | GI50 ([6]; read-out: pGI50 (converted)): 27.5 µM | TGI ([6]; read-out: pTGI (converted)): 100 µM | GI50 ([7]; read-out: GI50): 18 µM | CC50 [7, 30]: > 100 µM | GI50 ([7]; read-out: pGI50 (converted)): 18.2 µM | CC50 [7, 31]: 100 µM | TGI ([7]; read-out: pTGI (converted)): 100 µM | GI50 ([8]; read-out: GI50): 32 µM | CC50 [8, 30]: > 100 µM | TGI ([8]; read-out: TGI): > 100 µM | GI50 ([8]; read-out: pGI50 (converted)): 32.4 µM | CC50 [8, 31]: 100 µM | TGI ([8]; read-out: pTGI (converted)): 100 µM | TGI [9]: > 100 µM | GI50 ([9]; read-out: GI50): 33 µM | CC50 [9, 30]: > 100 µM | GI50 ([9]; read-out: pGI50 (converted)): 32.4 µM | CC50 [9, 31]: 100 µM | TGI [10]: > 100 µM | GI50 ([10]; read-out: GI50): 27 µM | CC50 [10, 30]: > 100 µM | GI50 ([10]; read-out: pGI50 (converted)): 27.5 µM | GI50 ([11]; read-out: GI50): 20 µM | CC50 [11, 30]: > 100 µM | TGI ([11]; read-out: TGI): > 100 µM | GI50 ([11]; read-out: pGI50 (converted)): 20 µM | TGI ([11]; read-out: pTGI (converted)): 100 µM | GI50 ([12]; read-out: GI50): 30 µM | CC50 [12, 30]: > 100 µM | TGI ([12]; read-out: TGI): > 100 µM | GI50 ([12]; read-out: pGI50 (converted)): 30.2 µM | CC50 [12, 31]: 100 µM | TGI ([12]; read-out: pTGI (converted)): 100 µM | GI50 ([13]; read-out: GI50): 42 µM | CC50 [13, 30]: 100 µM | TGI ([13]; read-out: TGI): > 100 µM | GI50 ([13]; read-out: pGI50 (converted)): 41.7 µM | CC50 [13, 31]: 100 µM | TGI ([13]; read-out: pTGI (converted)): 100 µM | GI50 ([14]; read-out: GI50): 30 µM | CC50 [14, 30]: 100 µM | TGI ([14]; read-out: TGI): > 100 µM | GI50 ([14]; read-out: pGI50 (converted)): 30.2 µM | CC50 [14, 31]: 100 µM | TGI ([14]; read-out: pTGI (converted)): 100 µM | TGI [15]: > 100 µM | GI50 ([15]; read-out: GI50): 74 µM | CC50 [15, 30]: > 100 µM | GI50 ([15]; read-out: pGI50 (converted)): 74.1 µM | CC50 [15, 31]: 100 µM | TGI [16]: > 100 µM | GI50 ([16]; read-out: GI50): 36 µM | CC50 [16, 30]: > 100 µM | GI50 ([16]; read-out: pGI50 (converted)): 36.3 µM | GI50 ([17]; read-out: GI50): 21 µM | CC50 [17, 30]: > 100 µM | TGI ([17]; read-out: TGI): > 100 µM | GI50 ([17]; read-out: pGI50 (converted)): 21.4 µM | CC50 [17, 31]: 100 µM | TGI ([17]; read-out: pTGI (converted)): 100 µM | GI50 ([18]; read-out: GI50): 21 µM | CC50 [18, 30]: > 100 µM | TGI ([18]; read-out: TGI): > 100 µM | GI50 ([18]; read-out: pGI50 (converted)): 21.4 µM | TGI ([18]; read-out: pTGI (converted)): 100 µM | GI50 ([19]; read-out: GI50): 48 µM | CC50 [19, 30]: > 100 µM | TGI ([19]; read-out: TGI): > 100 µM | GI50 ([19]; read-out: pGI50 (converted)): 47.9 µM | CC50 [19, 31]: 100 µM | TGI ([19]; read-out: pTGI (converted)): 100 µM | TGI [20]: > 100 µM | GI50 ([20]; read-out: GI50): 30 µM | CC50 [20, 30]: > 100 µM | GI50 ([20]; read-out: pGI50 (converted)): 30.2 µM | CC50 [20, 31]: 100 µM | GI50 ([21]; read-out: GI50): 36 µM | TGI ([21]; read-out: TGI): > 100 µM | GI50 ([21]; read-out: pGI50 (converted)): 35.5 µM | TGI ([21]; read-out: pTGI (converted)): 100 µM | GI50 ([22]; read-out: GI50): 25 µM | CC50 [22, 30]: > 100 µM | TGI ([22]; read-out: TGI): > 100 µM | GI50 ([22]; read-out: pGI50 (converted)): 25.1 µM | TGI ([22]; read-out: pTGI (converted)): 100 µM | GI50 ([23]; read-out: GI50): 72 µM | CC50 [23, 30]: > 100 µM | TGI ([23]; read-out: TGI): > 100 µM | GI50 ([23]; read-out: pGI50 (converted)): 72.4 µM | TGI ([23]; read-out: pTGI (converted)): 100 µM | GI50 ([24]; read-out: GI50): 22 µM | CC50 [24, 30]: > 100 µM | TGI ([24]; read-out: TGI): > 100 µM | GI50 ([24]; read-out: pGI50 (converted)): 22.4 µM | TGI ([24]; read-out: pTGI (converted)): 100 µM | GI50 ([25]; read-out: GI50): 35 µM | CC50 [25, 30]: > 100 µM | TGI ([25]; read-out: TGI): > 100 µM | GI50 ([25]; read-out: pGI50 (converted)): 34.7 µM | TGI ([25]; read-out: pTGI (converted)): 100 µM | GI50 ([26]; read-out: GI50): 15 µM | CC50 [26, 30]: > 100 µM | TGI ([26]; read-out: TGI): 49 µM | GI50 ([26]; read-out: pGI50 (converted)): 15.1 µM | TGI ([26]; read-out: pTGI (converted)): 49 µM | GI50 ([27]; read-out: GI50): 68 µM | CC50 [27, 30]: > 100 µM | TGI ([27]; read-out: TGI): 100 µM | GI50 ([27]; read-out: pGI50 (converted)): 69.2 µM | CC50 [27, 31]: 100 µM | TGI ([27]; read-out: pTGI (converted)): 100 µM | GI50 ([28]; BSY-1, read-out: GI50): 30 µM | CC50 ([28]; BSY-1, read-out: LC50 (the source's name)): > 100 µM | TGI ([28]; BSY-1, read-out: TGI): > 100 µM | GI50 ([28]; BSY-1, read-out: pGI50 (converted)): 30.2 µM | CC50 ([28]; BSY-1, read-out: pLC50 (the source's name) (converted)): 100 µM | TGI ([28]; BSY-1, read-out: pTGI (converted)): 100 µM | GI50 ([29]; read-out: GI50): 9 µM | CC50 [29, 30]: 100 µM | TGI ([29]; read-out: TGI): 55 µM | GI50 ([29]; read-out: pGI50 (converted)): 8.91 µM | CC50 [29, 31]: 100 µM | TGI ([29]; read-out: pTGI (converted)): 55 µM
